Data: patent publication US20100015262A1, “NOVEL USE OF COMPOUNDS AND COMBINATIONS OF COMPOUNDS FOR IMPROVING THE PHYSICAL APPEARANCE” (priority 2006, published 2010)
Read-outs that look alike come from different tables or passages of the source.

System: C3H10T1/2 cells
Assay: Adipocyte differentiation: lipid accumulation in induced C3H10T1/2 pre-adipocytes (Bodipy stain, Cellomics ArrayScan)
Format: cell-based
Details: for Cellular lipids (in % of differentiated cells) / activity at 1 µM / activity at 5 µM / activity at 25 µM / activity at 0.5 µM / activity at 2 µM: 7 days; for activity at 1 µM / activity at 5 µM / activity at 25 µM / activity at 0.5 µM / activity at 2 µM: Mus musculus, C3H 10T1/2, 168 h, read-out: Cellular lipids (in % of differentiated cells); for Effect on amount of cytoplasmic lipids (in words): single substances, summary of Table 1
Method: In the present invention, the effect of agents was identified by using cellular assays that measure the effect on adipocyte differentiation. Adherent pre-adipocyte cells, C3H10T1/2, were used; they were cultured in complete DMEM/FCS, i.e. Dulbecco's modified essential medium (DMEM) supplemented with penicillin/streptomycin [50 U penicillin/ml, […] streptomycin/ml] and 10% fetal calf serum (FCS) and passaged every 3-5 days. For experiments, C3H10T1/2 cells were re-suspended in DMEM/FCS without phenol red and seeded at […] cells/per well in collagen I pre-coated 24-well plates. After 2-3 days cells reached confluence. Culture medium was changed and cell differentiation was induced by adding induction medium consisting of rosiglitazone and insulin (at 50 μmol/L and 200 nmol/L, respectively). In some cases the induction medium consisted of […] dexamethasone and 500 μmol/L 3-isobutyl-1-methylxanthine. Control cells were cultured in DMEM/FCS containing only insulin. Where appropriate, substances were added to the differentiation medium at various concentrations at the time of induction, except for carotenoids which were added at the beginning of culture in order to preload the cells. The induction medium was changed every 2-3-days. Seven days after induction, cells were fixed in 60% isopropanol (40% water). After two washes in phosphate buffered saline (PBS), cells were stained with the neutral lipid stain Bodipy® 493/505 (0.5 μg/ml) and the nuclear stain Hoechst 33342 dye (2 μg/ml) for 30 minutes in the dark. After washing with PBS, the stained cells were stored at 4° C. in PBS. The extent of differentiation was quantified in a Cellomics array™ Array Scan V^Ti (http://www.cellomics.com/) using the Spot Detector BioApplication that had been optimized for detecting lipid accumulation in differentiated adipocytes. Effects of treatments were quantified using the ‘SpotCount’ and ‘SpotCountPerObject’ parameter that adequately reflects the differentiation status of the adipocytes.
The tested compounds were purchased from Sigma (PUFAs, i.e. DHA docosahexaenoic acid; EPA eicosapentaenoic acid) or Cayman Chemicals hydroxytyrosol), from DSM (hydroxytyrosol, resveratrol, genistein) or from Ehrenstorfer GmbH, Augsburg Germany (carotenoids like β-carotene, β-cryptoxanthin, lutein, lycopene, zeaxanithin); rose hip concentrate/powder was purchased from HybenVital (Denmark). The compounds to be tested were dissolved in dimethylsulfoxide (DMSO) or—in the case of carotenoids—in tetrahydrofuran (THF). Cells were preloaded with carotenoids, i.e. these were added to the culture medium when cells were seeded into test plates. Carotenoids were freshly prepared for every experimental series. Vehicle solution was added to reach a final concentration of 0.5% (v/v).
We further tested the effect of substances that were added to cultures concomitantly. The obtained values were then compared to the sum of the effect of individual substances: positive values indicate that two substances interact synergistically and thus surpass the individual effects.

[1] = 0.5 μM carotenoid (cells preloaded) + inducers
[2] = 1.0 μM carotenoid (cells preloaded) + inducers
[3] = 2.0 μM carotenoid (cells preloaded) + inducers
[4] = 1 μM compound + inducers of differentiation
[5] = 5 μM compound + inducers of differentiation
[6] = 25 μM compound + inducers of differentiation

CC1=C(/C=C/C(C)=C/C=C/C(C)=C/C=C/C=C(C)/C=C/C=C(C)/C=C/C2=C(C)C[C@@H](O)CC2(C)C)C(C)(C)CCC1 [β-cryptoxanthin]
Cellular lipids (in % of differentiated cells) [1]: 47.5% | Cellular lipids (in % of differentiated cells) [2]: 34.9% | Cellular lipids (in % of differentiated cells) [3]: 16.2%

Oc1ccc(C=Cc2cc(O)cc(O)c2)cc1 [Resveratrol, resveratrol]
activity at 1 µM [4]: 106% | activity at 5 µM [5]: 102% | activity at 25 µM [6]: 103% | Effect on amount of cytoplasmic lipids (in words): only minor effects

CC/C=C\C/C=C\C/C=C\C/C=C\C/C=C\CCCC(=O)O [EPA, eicosapentaenoic acid]
activity at 1 µM [4]: 86.6% | activity at 5 µM [5]: 77% | activity at 25 µM [6]: 74.1%

CC1=C(/C=C/C(C)=C/C=C/C(C)=C/C=C/C=C(C)/C=C/C=C(C)/C=C/C2=C(C)CCCC2(C)C)C(C)(C)CCC1 [beta-carotene, β-carotene]
activity at 0.5 µM [1]: 93% | activity at 1 µM [2]: 66.7% | activity at 2 µM [3]: 69.4%

CC1=C(/C=C/C(C)=C/C=C/C(C)=C/C=C/C=C(C)/C=C/C=C(C)/C=C/C2=C(C)C[C@@H](O)CC2(C)C)C(C)(C)C[C@H](O)C1 [zeaxanthin]
Cellular lipids (in % of differentiated cells) [1]: 56.8% | Cellular lipids (in % of differentiated cells) [2]: 39.5% | Cellular lipids (in % of differentiated cells) [3]: 43.7%

OCCc1ccc(O)c(O)c1 [Hydroxytyrosol]
activity at 1 µM [4]: 103% | activity at 5 µM [5]: 103% | activity at 25 µM [6]: 68.3%

CC1=C[C@H](O)CC(C)(C)[C@H]1/C=C/C(C)=C/C=C/C(C)=C/C=C/C=C(C)/C=C/C=C(C)/C=C/C1=C(C)C[C@@H](O)CC1(C)C [lutein]
activity at 0.5 µM [1]: 94.3% | activity at 1 µM [2]: 85.6% | activity at 2 µM [3]: 72.1%

O=c1c(-c2ccc(O)cc2)coc2cc(O)cc(O)c12 [Genistein, genistein]
activity at 1 µM [4]: 112% | activity at 5 µM [5]: 99.7% | activity at 25 µM [6]: 95.9% | Effect on amount of cytoplasmic lipids (in words): only minor effects

CC(C)=CCC/C(C)=C/C=C/C(C)=C/C=C/C(C)=C/C=C/C=C(C)/C=C/C=C(C)/C=C/C=C(\C)CCC=C(C)C [lycopene]
activity at 0.5 µM [1]: 44.5% | activity at 1 µM [2]: 45.1% | activity at 2 µM [3]: 24.6%

CC/C=C\C/C=C\C/C=C\C/C=C\C/C=C\C/C=C\CCC(=O)O [DHA, docosahexaenoic acid]
activity at 1 µM [4]: 95.9% | activity at 5 µM [5]: 91.5% | activity at 25 µM [6]: 66.2%

(−)-epigallocatechin gallate [EGCG]
Cellular lipids (in % of differentiated cells) [4]: 113.1% | Cellular lipids (in % of differentiated cells) [5]: 98.9% | Cellular lipids (in % of differentiated cells) [6]: 93.1% | Effect on amount of cytoplasmic lipids (in words): only minor effects
